Where two headings read alike, the source gives them in different places.
Legend:
[1] = system: Salmonella typhimurium (TA100); experiment: Ames test for genotoxicity (AMES-MOD ISO); conditions: concentrations up to at least 10 uM
Method: Ames test was completed using the AMES-MOD ISO 96 well format assay, Version 1.1 (Environmental Bio-Detection Products Inc.) according to manufacturer’s instructions. In brief, Salmonella typhimurium (TA100) bacterial strain was exposed to the indicated doses of sodium azide (positive control) or α-NETA solubilized in DMSO (1% DMSO/well, 48 wells/dose completed in triplicate). After 2 h incubation the cells were diluted and cultured in media lacking histidine but containing pH indicator to identify revertant cell growth. After 3 days of incubation at 37 °C, the number of wells containing revertant cells was counted per dose.

[2] = system: Pregnane X receptor (PXR); experiment: Cyp induction: PXR luciferase reporter in human hepatoma cell line; format: cell-based; conditions: concentrations up to 50 uM
Method: Pregnane X receptor (PXR) activation was used as a marker of Cyp induction. An engineered human hepatoma cell line with a PXR luciferase reporter was incubated with the indicated concentrations of α-NETA, Rifampicin (positive control), or DMSO (negative control), and luciferase activity assessed (Cyprotex/Evotec AG).

[3] = Acute single dose toxicity (LD50); conditions: C57BL/6, mouse, in vivo; p.o. (oral gavage) in 10% captisol, WT C57BL6 mice, 14 days monitoring
Method: C57/BL6 mice received one treatment of α-NETA (formulated in 10% captisol, Cydex Pharmaceuticals) at the following doses: 3000, 1000, 300, 100, 30, 0 mg/kg by oral gavage (200 ul/dose, 3 mice/group). Mouse survival was monitored and body weight was measured daily for 14 days. On day 14 the mice were euthanized and the wet weight for the following tissues: kidney, brain, spleen, liver, heart, and lung, was recorded.

[4] = biological target: T1, CMKLR1 (Homo sapiens, UniProt Q99788); experiment: β-arrestin recruitment assay (chemerin-dependent β-arrestin2 signaling); format: cell-based; conditions: CMKLR1-CHO-β-Arrestin cells, 20 nM chemerin, read-out: β-arrestin IC50 mean ± SEM (n)
T1 construct: host or cells: CHO-K1 (PathHunter CMKLR1 β-Arrestin cells)
T1 sequence (Q99788 1-373): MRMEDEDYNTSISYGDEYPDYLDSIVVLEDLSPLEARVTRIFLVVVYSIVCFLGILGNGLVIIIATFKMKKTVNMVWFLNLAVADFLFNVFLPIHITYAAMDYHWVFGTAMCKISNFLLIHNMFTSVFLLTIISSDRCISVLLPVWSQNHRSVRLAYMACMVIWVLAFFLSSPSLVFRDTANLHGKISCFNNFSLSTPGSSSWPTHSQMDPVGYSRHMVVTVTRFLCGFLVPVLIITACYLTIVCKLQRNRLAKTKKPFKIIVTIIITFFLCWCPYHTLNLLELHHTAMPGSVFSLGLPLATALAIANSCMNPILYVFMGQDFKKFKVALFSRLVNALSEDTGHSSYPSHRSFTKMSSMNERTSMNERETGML
Method: DiscoverX PathHunter® CHO-K1 CMKLR1 β-Arrestin Cells were grown in RPMI lacking phenol red (Gibco, Life Technologies), supplemented with L-glutamine, penicillin-streptomycin, sodium pyruvate, non-essential amino acid, BCS, hygromycin, and G418-sulfate. CMKLR1-CHO-β-Arrestin cells were seeded in 96 well plates at 1 × 10^5 cell/ml- 100 ul/well and incubated overnight at 37 °C, 5% CO2. […] (α-NETA and test compounds were reconstituted in DMSO; final DMSO concentration in each well was 0.1%). After 10 min, 5 ul of recombinant human chemerin (R&D Systems) at a final concentration of 20 nM was added to each well. Plates were incubated for 90 min at 37 °C, 5% CO2. Media was then removed and 50 ul of chemiluminescent substrate (Tropix Gal-Screen, Applied Biosciences) was added. The plate was incubated for 1 hr at RT and luminescence was detected using the SpectraMax M5 plate reader (Molecular Devices). For each independent trial (single replicate dose curves), data was normalized to the maximum signal per compound tested and an IC50 value was generated using GraphPad Prism software. The average IC50 value for n independent trials (as specified in the table) is reported.

[5] = biological target: T2, hERG potassium channel (Homo sapiens, UniProt Q12809); experiment: hERG inhibition, patch-clamp with CHO-hERG transfectants; format: cell-based; conditions: hERG tail current, 0.008-25 uM
T2 construct: host or cells: CHO
T2 sequence (Q12809 whole entry): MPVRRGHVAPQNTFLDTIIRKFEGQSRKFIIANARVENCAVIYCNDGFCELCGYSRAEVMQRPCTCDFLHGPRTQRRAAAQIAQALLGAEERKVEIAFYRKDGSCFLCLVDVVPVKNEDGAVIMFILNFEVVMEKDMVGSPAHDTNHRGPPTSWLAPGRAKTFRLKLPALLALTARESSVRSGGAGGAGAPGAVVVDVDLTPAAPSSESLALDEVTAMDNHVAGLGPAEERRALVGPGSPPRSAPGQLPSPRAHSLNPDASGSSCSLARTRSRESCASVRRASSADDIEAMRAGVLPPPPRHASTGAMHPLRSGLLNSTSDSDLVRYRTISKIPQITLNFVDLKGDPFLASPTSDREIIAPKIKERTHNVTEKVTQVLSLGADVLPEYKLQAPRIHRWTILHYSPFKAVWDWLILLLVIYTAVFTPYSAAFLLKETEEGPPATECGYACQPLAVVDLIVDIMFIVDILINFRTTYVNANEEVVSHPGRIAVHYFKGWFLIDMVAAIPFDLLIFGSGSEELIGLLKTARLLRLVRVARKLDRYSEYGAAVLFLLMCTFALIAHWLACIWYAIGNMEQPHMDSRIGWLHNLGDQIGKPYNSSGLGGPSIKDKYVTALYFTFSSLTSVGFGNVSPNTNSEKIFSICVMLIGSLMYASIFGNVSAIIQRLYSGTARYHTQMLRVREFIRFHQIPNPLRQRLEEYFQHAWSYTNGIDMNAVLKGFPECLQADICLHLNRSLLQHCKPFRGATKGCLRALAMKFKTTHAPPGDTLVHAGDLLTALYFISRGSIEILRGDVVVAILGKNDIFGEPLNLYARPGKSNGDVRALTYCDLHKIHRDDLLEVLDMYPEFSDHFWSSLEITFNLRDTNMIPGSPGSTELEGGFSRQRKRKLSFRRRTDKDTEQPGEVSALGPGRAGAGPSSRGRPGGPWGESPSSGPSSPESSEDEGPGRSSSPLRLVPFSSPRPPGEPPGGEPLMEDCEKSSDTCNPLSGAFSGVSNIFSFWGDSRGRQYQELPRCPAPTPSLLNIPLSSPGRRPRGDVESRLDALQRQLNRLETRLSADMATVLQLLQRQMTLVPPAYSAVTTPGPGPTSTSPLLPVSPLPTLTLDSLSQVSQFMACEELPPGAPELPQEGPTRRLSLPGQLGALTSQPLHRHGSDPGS
Method: A patch-clamp assay with single CHO-hERG cell transfectants were used to quantify potential α-NETA-dependent hERG inhibition (2–3 cells per compound concentration). […] The cell was depolarized, and the hERG tail current was measured, and IC50 determined (Cyprotex/Evotec AG).

[6] = biological target: T3, Cyp2B6 (Homo sapiens, UniProt P20813); experiment: Cyp enzyme inhibition in human liver microsomes; format: in vitro ADME; conditions: 30 min pre-incubation
T3 construct: tissue Cyprotex/Evotec AG; host or cells: human liver microsomes
T3 sequence (P20813 1-491): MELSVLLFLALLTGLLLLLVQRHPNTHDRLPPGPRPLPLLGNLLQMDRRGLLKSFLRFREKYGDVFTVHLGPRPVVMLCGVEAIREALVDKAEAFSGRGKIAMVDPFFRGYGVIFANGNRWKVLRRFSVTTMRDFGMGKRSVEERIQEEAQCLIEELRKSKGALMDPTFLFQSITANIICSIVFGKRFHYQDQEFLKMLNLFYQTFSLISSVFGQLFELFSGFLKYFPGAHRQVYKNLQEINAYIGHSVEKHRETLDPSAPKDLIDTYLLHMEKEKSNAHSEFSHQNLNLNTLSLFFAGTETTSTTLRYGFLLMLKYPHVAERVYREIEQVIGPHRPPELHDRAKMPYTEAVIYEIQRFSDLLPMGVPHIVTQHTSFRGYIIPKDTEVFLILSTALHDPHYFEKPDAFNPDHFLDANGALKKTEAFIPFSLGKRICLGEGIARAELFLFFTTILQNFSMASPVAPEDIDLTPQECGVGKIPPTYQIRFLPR

[7] = system: C57BL/6 mice with EAE; experiment: Experimental autoimmune encephalomyelitis (EAE), MOG35–55/CFA immunization; format: in vivo, mouse
Method: C57BL/6 mice were purchased from The Jackson Laboratory. […] Animal experiments were conducted in accordance with approved Veterans Affairs, National Institutes of Health, and Institutional Animal Care and Use Committee guidelines.
CFA consisted of 5 mg/ml mTB (Mycobacterium-tuberculosis H37 Ra, BD Difco) in IFA (Incomplete Freund’s Adjuvant, Sigma). MOG35–55 was reconstituted at 2 mg/ml in PBS. Mice also received 200 ng pertussis toxin (List Biological Laboratories, Inc) by i.p. injection at the time of immunization and two days later. […] For a direct comparison to α-NETA, the DMF and compound doses were also 10 mg/kg in 10% captisol. Mice were monitored daily for clinical disease and scored (0 = normal/healthy, 1 = limp tail, 2 = hindlimb weakness, 3 = hindlimb paralysis, 4 = hindlimb and forelimb paralysis, 5 = moribund/dead).

[8] = biological target: T4, Cyp2C9 (Homo sapiens, UniProt P11712); experiment: Cyp enzyme inhibition in human liver microsomes; format: in vitro ADME; conditions: 30 min pre-incubation
T4 construct: tissue Cyprotex/Evotec AG; host or cells: human liver microsomes
T4 sequence (P11712 whole entry): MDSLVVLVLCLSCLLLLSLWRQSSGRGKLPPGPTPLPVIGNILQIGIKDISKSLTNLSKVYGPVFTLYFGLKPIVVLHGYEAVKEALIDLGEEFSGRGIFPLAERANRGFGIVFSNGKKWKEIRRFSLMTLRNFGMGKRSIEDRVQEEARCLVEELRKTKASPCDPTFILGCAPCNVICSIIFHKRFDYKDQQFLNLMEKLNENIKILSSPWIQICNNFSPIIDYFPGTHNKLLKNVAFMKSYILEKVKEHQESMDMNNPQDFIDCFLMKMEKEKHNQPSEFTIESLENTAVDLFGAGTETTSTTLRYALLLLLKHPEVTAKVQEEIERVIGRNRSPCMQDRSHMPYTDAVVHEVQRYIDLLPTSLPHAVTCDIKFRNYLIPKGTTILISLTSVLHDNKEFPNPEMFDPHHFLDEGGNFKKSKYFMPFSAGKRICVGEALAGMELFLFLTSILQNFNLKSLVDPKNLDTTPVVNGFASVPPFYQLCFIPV

[9] = system: Cyp2D6; parameters: method as in PubChem BioAssay ID 1461; conditions: ref PubChem BioAssay ID 1461; cited from earlier work
[10] = biological target: T5, CYP3A4 (Homo sapiens, UniProt P08684); experiment: Cyp enzyme inhibition in human liver microsomes; format: in vitro ADME
T5 construct: tissue Cyprotex/Evotec AG; host or cells: human liver microsomes
T5 sequence (P08684 whole entry): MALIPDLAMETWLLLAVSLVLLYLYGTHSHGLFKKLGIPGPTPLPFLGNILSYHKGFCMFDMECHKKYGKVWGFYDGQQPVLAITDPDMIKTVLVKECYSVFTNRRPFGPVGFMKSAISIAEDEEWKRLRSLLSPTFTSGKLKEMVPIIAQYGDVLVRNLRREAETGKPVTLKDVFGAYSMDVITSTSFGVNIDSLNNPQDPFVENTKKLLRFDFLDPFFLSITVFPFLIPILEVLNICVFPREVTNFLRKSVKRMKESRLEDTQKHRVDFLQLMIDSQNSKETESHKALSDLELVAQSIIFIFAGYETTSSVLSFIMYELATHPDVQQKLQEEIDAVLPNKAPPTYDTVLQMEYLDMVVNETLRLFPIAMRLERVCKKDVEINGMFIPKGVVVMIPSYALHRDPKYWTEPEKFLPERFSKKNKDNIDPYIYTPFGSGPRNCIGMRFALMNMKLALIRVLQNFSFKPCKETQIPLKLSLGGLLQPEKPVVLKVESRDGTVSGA

[11] = Repeat dosing toxicity, 14 days; conditions: C57BL/6, mouse, in vivo, po; repeated dosing p.o. for up to 14 days; read-out: no-observable-adverse-effect-level (NOAEL)
Method: Mouse survival was monitored and body weight was measured daily for the length of the study. On day 14 the mice were euthanized and the wet weight for the following tissues: kidney, brain, spleen, liver, heart, and lung, was recorded.

In the case of `C[N+](C)(C)CCC(=O)c1cccc2ccccc12.[I-]` [α-NETA, 2-(α-naphthoyl) ethyltrimethylammonium iodide], the “mutagenesis in Ames test (histidine revertants)” value [1] is reported as “did not induce mutagenesis”, the “PXR activation (marker of Cyp induction)” value [2] is reported as “did not induce substantial PXR activity” and the LD50 at 14 days [3] is reported as 873 mg/kg. The IC50 ([4]; Table 2 tertiary amines) was 4.9 ± 1.5 µM, the IC50 ([4]; Table 3 quaternary ammonium salts) was 4.9 ± 1.5 µM and the IC50 [5] was 10.4 µM. The IC50 [6] was 0.12 µM, the “day of EAE onset (mean ± SEM)” value ([7]; Fig. 1 study, 10 mg/kg daily in 10% captisol, s.c., d29 onset assumed for 2 α-NETA mice) was 21 ± 2 days and the “Day of onset (Mean ± SEM)” value ([7]; Table 4, 10 mg/kg daily to D21, n = 8) was 14.4 ± 0.6. For the same molecule, the “Maximum Score (Mean ± SEM)” value ([7]; Table 4, 10 mg/kg daily to D21, n = 8, clinical score 0-5) was 2.6 ± 0.2, the “AUC (Mean ± SEM) of clinical score” value ([7]; Table 4, 10 mg/kg daily to D21, n = 8, mean clinical score x day) was 31.9 ± 4.0 and the IC50 [8] was 14.6 µM. The IC50 [9] was greater than 10 µM, the IC50 ([10]; human, liver microsomes, probe midazolam, substrate Midazolam) was 7.4 µM and the IC50 ([10]; substrate Midazolam) was 7.5 µM. It also gave an IC50 ([10]; substrate testosterone) of 6.9 µM and an NOAEL at 14 days [11] of no less than 300 mg/kg.
